The target of one series is PDE8A1 Enzyme (Homo sapiens (Human), UniProt O60658). As to the kind of experiment: PDE enzymology evaluation, PDE8A1. The series is classed as biochemical. On the procedure:
(§1) Experimental Example 5: PDE Enzymology Evaluation Method
(§2) Test substance: Compounds of the invention, prepared by the corresponding examples of the invention
(§3) 1. Experimental materials and instruments
PDE8A1 Enzyme (BPS, Cat. No. 60080)
(§4) 2. Experimental procedure
(§5) Preparation of the compounds: the compounds were prepared into 10 mM compound stock solution in DMSO for long-term storage. The obtained compound stock solution was diluted in 100 times with DMSO to obtain 100 μM compound working mother solution, and then the compound working mother solution was diluted in 3 times with DMSO to obtain 10 concentration gradients of diluted compound mother liquor (100×).
(§6) Incubation with the compounds: A very small amount of liquid pipetting system Echo was used to pipette the diluted compound mother liquor into a 384-well plate. 200 nL diluted compound mother liquor and 10 μL PDE1A1, PDE3A, PDE5A1 and PDE8A1 enzyme solution were added to each compound well. […] In the maximum reading hole (Max), the compound was replaced by solvent. In the minimum reading hole (Min), the compound and enzyme solution were replaced by solvent.
(§7) Detection: Fluorescence readings (F) at 480 nm/535 nm were detected using a microplate reader.
(§8) Calculation: The inhibition rate was calculated as follows, and IC50 was fitted using GraphPad Prism 5.0: […]

A short description of series [1]: Rat pharmacokinetic evaluation. Format: in vivo, SD male rats. The settings on record: SD rat, intravenous bolus 1 mg/kg.
For series [2] the following is noted: human.
Series [3] can be described thus: Rat pharmacokinetic evaluation. The series is classed as in vivo, SD male rats. The settings on record: male, Sprague-Dawley, plasma, SD rat. On the procedure: Experimental Example 4: Rat Pharmacokinetic Evaluation of the Compounds of the Invention
Aim: The in vivo pharmacokinetic parameters of the compounds in SD male rats (purchased from Beijing Vital River Animal Technology Co., Ltd.) were evaluated and bioavailability of the compounds was examined.
Animal Administration and Sample Collection:
The solution of compounds 65, 90, 107, 158 was intragastrically administered to SD rat at a dose of 5.0 mg/kg.
The experimental compound 76 was dissolved in 30% DMF+30% PEG400+40% saline to prepare a solution. The solution of compound 76 was intragastrically administered to SD rat at a dose of 5.0 mg/kg.
The experimental compound 76 was dissolved in 30% DMF+30% PEG400+40% saline to prepare a solution.
The experimental compounds 84 and 96 were dissolved in 5% DMSO+10% PEG400+85% (28% HP-β-CD) saline to prepare a solution. The solution of compounds 84 and 96 was intragastrically administered to SD rat at a dose of 5.0 mg/kg.
The experimental compounds 84 and 96 were dissolved in 5% DMSO+10% PEG400+85% (28% HP-β-CD) saline to prepare a solution.
The animals were fixed. The tail was heated with a water bath at 10 min before each time point. About 100 μL of blood from tail vein was collected, and then placed in an anti-coagulation tube containing EDTA-K2 after collection. Blood samples were centrifuged at 8000 rpm at 4° C. for 6 min to obtain plasma samples.
The concentration of test sample was output using Analyst 1.6.1 from AB SCIEX.

Series [4] is described as follows: Canine pharmacokinetic evaluation. Format: in vivo. The settings on record: Beagle dogs. The source says: 1. Animal Administration and Sample Collection
2. Sample Analysis Method
3. Data Processing Method

Another series has as its target PDE3A Enzyme (Homo sapiens (Human), UniProt Q14432). Kind of series: PDE enzymology evaluation, PDE3A. The series is classed as biochemical. On the procedure: as §1, §2, §3
PDE3A Enzyme (BPS, Cat. No. 60030)
as §4, §5, §6, §7, §8

The next series addresses PDE1A1 Enzyme (Homo sapiens (Human), UniProt P54750). As to the kind of experiment: PDE enzymology evaluation, PDE1A1. The series is classed as biochemical. On the procedure:
as §1, §2, §3
PDE1A1 Enzyme (BPS, Cat. No. 60010)
as §4, §5, §6, §7, §8

The target of another series is PDE5A1 Enzyme (Homo sapiens (Human), UniProt O76074). Kind of series: PDE enzymology evaluation, PDE5A1. Format: biochemical. On the procedure: as §1, §2, §3
PDE5A1 Enzyme (BPS, Cat. No. 60050)
as §4, §5, §6, §7, §8

A short description of another series: in vitro. The conditions noted are these: human, microsomes.

Read-outs that look alike come from different tables or passages of the source.

PDE1A1 Enzyme, sequence (P54750 whole entry, change not shown): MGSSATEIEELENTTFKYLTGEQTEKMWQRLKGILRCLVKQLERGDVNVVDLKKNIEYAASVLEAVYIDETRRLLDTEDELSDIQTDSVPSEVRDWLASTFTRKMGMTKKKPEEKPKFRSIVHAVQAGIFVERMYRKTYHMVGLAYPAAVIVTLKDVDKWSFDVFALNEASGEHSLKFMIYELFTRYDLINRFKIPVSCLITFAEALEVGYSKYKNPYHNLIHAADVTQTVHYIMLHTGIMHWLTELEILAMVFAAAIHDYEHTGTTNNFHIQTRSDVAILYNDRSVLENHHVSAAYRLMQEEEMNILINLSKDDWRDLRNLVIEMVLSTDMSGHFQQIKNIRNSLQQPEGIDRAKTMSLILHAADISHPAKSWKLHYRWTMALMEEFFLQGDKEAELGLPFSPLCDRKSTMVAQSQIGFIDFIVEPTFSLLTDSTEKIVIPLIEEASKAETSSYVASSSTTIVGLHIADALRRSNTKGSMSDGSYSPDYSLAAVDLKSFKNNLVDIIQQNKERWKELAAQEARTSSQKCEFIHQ
PDE8A1 Enzyme, sequence (O60658 whole entry): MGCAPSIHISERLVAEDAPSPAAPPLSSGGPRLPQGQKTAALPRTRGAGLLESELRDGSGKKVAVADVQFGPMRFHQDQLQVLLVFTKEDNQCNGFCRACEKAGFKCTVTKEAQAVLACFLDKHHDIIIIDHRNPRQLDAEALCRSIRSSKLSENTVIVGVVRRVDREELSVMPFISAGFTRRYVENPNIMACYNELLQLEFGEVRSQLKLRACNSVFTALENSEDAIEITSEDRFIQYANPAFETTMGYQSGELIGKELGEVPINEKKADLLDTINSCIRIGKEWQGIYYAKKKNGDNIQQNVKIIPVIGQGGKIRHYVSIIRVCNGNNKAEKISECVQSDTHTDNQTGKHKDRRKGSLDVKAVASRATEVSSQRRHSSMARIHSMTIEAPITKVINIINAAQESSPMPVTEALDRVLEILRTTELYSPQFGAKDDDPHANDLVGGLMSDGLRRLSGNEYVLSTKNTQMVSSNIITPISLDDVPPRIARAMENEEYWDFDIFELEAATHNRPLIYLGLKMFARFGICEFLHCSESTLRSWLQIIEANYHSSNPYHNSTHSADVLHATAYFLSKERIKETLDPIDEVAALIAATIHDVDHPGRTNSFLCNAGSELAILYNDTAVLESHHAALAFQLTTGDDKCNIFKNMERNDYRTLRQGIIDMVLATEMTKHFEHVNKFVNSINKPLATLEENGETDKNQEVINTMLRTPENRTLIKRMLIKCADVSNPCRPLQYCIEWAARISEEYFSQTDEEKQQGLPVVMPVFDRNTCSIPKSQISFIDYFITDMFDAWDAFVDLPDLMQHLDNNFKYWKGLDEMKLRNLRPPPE
PDE3A Enzyme, sequence (Q14432 whole entry): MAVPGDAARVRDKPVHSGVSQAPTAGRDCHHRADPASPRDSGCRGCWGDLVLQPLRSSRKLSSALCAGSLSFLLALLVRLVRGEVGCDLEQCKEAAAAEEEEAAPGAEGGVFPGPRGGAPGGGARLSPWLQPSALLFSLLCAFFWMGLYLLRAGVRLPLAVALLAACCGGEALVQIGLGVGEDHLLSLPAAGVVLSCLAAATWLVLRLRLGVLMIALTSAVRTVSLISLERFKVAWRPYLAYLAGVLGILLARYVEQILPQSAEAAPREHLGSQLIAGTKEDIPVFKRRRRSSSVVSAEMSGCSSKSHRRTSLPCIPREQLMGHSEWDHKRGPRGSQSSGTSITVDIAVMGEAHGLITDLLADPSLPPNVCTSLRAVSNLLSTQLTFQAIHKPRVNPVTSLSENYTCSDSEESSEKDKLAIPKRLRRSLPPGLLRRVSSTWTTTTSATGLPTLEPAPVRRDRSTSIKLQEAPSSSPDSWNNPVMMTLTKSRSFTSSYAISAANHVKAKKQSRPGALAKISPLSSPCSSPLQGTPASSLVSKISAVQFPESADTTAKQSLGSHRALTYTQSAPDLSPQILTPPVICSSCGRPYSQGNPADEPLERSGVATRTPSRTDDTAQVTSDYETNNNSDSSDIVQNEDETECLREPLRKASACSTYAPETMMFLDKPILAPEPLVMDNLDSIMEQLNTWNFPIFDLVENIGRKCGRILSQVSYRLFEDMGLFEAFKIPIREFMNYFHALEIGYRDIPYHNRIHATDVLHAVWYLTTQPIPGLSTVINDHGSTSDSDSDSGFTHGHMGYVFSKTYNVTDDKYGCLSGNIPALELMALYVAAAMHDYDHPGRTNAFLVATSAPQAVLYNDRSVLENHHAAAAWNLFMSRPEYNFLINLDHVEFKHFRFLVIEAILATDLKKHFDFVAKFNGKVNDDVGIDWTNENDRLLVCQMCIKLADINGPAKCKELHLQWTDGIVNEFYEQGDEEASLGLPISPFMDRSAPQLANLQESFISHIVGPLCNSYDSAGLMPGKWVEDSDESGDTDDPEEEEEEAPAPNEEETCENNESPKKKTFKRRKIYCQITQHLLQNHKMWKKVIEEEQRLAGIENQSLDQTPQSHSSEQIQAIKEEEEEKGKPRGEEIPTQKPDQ

As for `N#Cc1c(N2CCC3(CC2)CC3)c2ccncc2[nH]c1=O` [Compound 25, 2-oxo-4-(6-azaspiro[2.5]octane-6-yl)-1,2-dihydro-1,7-naphthyridin-3-carbonitrile], the IC50 against PDE8A1 Enzyme, against PDE3A Enzyme, against PDE1A1 Enzyme and against PDE5A1 Enzyme was over 3000 nM each time. For the same compound, the “Vz_obs iv (apparent distribution volume)” value in series [1] stood at 1.27 L/kg; in series [4] (intravenous bolus 1 mg/kg, n = 3), 7.06 L/kg. The AUC(0-t) in [1] (male, Sprague-Dawley, plasma, read-out: AUClast iv) came to 574 ng·h/mL; in series [3] (po, intragastric 5 mg/kg, read-out: AUClast po), 2050 ng·h/mL. For the same compound, the clearance in series [1] (male, Sprague-Dawley, plasma, read-out: Cl_obs iv (clearance rate) (converted)) is 29.3 mL/min/kg; in series [4] (dog, plasma, intravenous bolus 1 mg/kg, n = 3, read-out: Cl_obs iv (clearance rate) (converted)) it was 7.83 mL/min/kg. The half-life in series [1] (male, Sprague-Dawley, plasma, read-out: tz1/2 iv (terminal elimination half-life) (converted)) is 0.51 h; in series [3] (po, intragastric 5 mg/kg, read-out: tz1/2 po (terminal elimination half-life) (converted)), 1.4 h; in series [4] (dog, plasma, po, intragastric 2 mg/kg, n = 3, read-out: tz1/2 po (terminal elimination half-life) (converted)), 9.45 h; in series [4] (dog, plasma, intravenous bolus 1 mg/kg, n = 3, read-out: tz1/2 iv (terminal elimination half-life) (converted)) it was 10.4 h; in “in vitro”, 5.25 h. For the same compound, the “Original drug residual % at 60 min” value in series [2] was found to be 87.5%. In addition, the “k” value in [2] is 0.0022 min⁻¹. Also, the CLint in series [2] (microsomes) is recorded as 0.0044 mL · min^−1 · mg^−1 proteins. The time to peak (Tmax) is 1 h in series [3] (po, intragastric 5 mg/kg, median) and 0.5 h in [4] (dog, plasma, po, intragastric 2 mg/kg, n = 3, median). In addition, the bioavailability in [3] (dose iv/po 1/5 mg/kg, read-out: F % (absolute bioavailability)) stood at 74.2%; in [4] (dog, plasma, dose iv/po 1/2 mg/kg, n = 3) it was 99.1%. The AUC(0-inf) came to 4450 ng·h/mL in series [4] (dog, plasma, po, intragastric 2 mg/kg, n = 3, read-out: AUCinf po) and 2240 ng·h/mL in [4] (dog, plasma, intravenous bolus 1 mg/kg, n = 3, read-out: AUCinf iv).

The IC50 is the concentration that inhibits the measured activity by half. A low value points to greater potency. As usually defined, the clearance is a measure of how efficiently the substance is removed, as volume per time. As usually defined, the Tmax is the time at which the peak concentration occurs. Usually bioavailability stands for dose-corrected exposure relative to a reference, in per cent.
